# Results as given in publication PMC4824473, “Dose-Response Analysis of Chemotactic Signaling Response in Salmonella typhimurium LT2 upon Exposure to Cysteine / Cystine Redox Pair” (PLoS ONE, 2016).
# Molecular target: T1, Tar (Salmonella enterica, UniProt P02941)
# T1 construct: native chromosomal full-length receptor, homodimer in mixed receptor arrays; strain TSS868 (LT2 delta-tsr delta-cheY delta-cheZ) with CheZ-CFP/CheY-YFP plasmid pVS88; other native receptors present
# Experiment: in vivo CheZ-CFP/CheY-YFP FRET of receptor-kinase activity, Hill fit
# Assay type: cell-based
# Details: live delta-tsr cells, motility buffer pH 7.0, room temperature; attractant; Hill coefficient 1.5; other receptors present; about 1% of Cys possibly oxidized to cystine; read-out: half maximum
# T1 sequence (P02941 whole entry): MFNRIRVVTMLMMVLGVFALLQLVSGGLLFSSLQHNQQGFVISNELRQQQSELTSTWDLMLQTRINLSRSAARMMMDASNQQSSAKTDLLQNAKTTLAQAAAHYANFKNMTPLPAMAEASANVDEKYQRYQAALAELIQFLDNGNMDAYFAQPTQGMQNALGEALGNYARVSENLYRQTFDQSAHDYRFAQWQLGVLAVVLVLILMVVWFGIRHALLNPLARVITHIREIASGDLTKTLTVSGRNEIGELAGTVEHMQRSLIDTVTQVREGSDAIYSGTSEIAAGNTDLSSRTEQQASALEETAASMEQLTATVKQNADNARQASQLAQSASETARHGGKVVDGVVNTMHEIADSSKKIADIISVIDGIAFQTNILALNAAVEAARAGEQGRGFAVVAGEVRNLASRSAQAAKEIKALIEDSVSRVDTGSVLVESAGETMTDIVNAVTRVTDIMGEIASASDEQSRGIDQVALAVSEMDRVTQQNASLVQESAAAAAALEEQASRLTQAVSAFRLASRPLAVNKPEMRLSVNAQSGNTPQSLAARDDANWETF
smiles,measurement,value
N[C@@H](CS)C(=O)O [Cys],EC50,128 µM
